Reference: patent US11873298B2, “Compounds and uses thereof” (JANSSEN PHARMACEUTICA NV, priority 2017, dated 2024)
pIC50: −log10 of the molar value.

Experiments:
[1] = molecular target: T1, SCD1 (Homo sapiens, UniProt O00767); test: Growth inhibition of humanized yeast strain expressing SCD1 as sole desaturase; format: cell-based
T1 construct: host or cells: S. cerevisiae ole1Δ strain (W303 pdr1Δ pdr3Δ background), plasmid pRS316 with TDH3 promoter and CYC1 terminator
T1 sequence (O00767 1-359): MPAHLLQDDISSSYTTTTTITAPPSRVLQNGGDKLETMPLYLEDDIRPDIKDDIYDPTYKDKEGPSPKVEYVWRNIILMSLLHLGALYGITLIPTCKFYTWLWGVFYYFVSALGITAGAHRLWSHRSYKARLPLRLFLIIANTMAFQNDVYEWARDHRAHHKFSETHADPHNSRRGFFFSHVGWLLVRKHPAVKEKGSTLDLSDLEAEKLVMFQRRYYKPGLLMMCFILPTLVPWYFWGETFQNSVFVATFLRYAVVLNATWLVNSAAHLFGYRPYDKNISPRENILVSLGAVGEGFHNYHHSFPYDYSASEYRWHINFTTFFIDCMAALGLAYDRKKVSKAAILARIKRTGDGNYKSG
Summary of the method: (§1)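 Yeast ole1Δ strain (W303 pdr1Δ pdr3Δ background) carrying plasmid-borne Ole1, SCD1 or SCD5 as sole desaturase was grown in uracil-lacking media, pre-cultured in raffinose for 6 h, then seeded in galactose medium with compound in DMSO. Growth was read as OD600 after 30° C. incubation: 24 h for Ole1, 40 h for SCD1/SCD5.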

[2] = molecular target: T2, SCD5 (Homo sapiens, UniProt Q86SK9); test: Growth inhibition of humanized yeast strain expressing SCD5 as sole desaturase; format: cell-based
T2 construct: host or cells: S. cerevisiae ole1Δ strain (W303 pdr1Δ pdr3Δ background), plasmid pRS316 with TDH3 promoter and CYC1 terminator
T2 sequence (Q86SK9 1-330): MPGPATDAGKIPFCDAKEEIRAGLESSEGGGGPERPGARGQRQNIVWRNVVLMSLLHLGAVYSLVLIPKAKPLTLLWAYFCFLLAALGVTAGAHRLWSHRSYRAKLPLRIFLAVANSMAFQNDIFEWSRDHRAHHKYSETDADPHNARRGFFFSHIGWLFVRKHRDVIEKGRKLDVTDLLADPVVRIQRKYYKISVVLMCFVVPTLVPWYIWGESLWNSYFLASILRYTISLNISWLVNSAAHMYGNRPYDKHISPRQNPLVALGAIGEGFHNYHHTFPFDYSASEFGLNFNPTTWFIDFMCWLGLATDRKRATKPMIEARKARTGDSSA
Summary of the method: as §1

[3] = growth inhibition of humanized yeast strain expressing human SCD1
[4] = growth inhibition of humanized yeast strain expressing human SCD5
[5] = humanized yeast strain expressing SCD1
[6] = humanized yeast strain expressing SCD5

| SMILES | pIC50 ([1]; humanized yeast strain, 40 h) | pIC50 ([2]; humanized yeast strain, 40 h) | also measured |
| --- | --- | --- | --- |
| O=C(C1CC1)N1CCC(c2nc(-c3ccnc(F)c3)no2)CC1 [Compound 1128] | < 4.35 | < 4.35 | – |
| CC(C)(C)OC(=O)N1CCC(c2noc(-c3ccc(OC4COC4)c(NC4COC4)c3)n2)CC1 [Compound 1006] | < 4.35 | 6.20 | – |
| CC1(OC(=O)N2CCC(c3noc(-c4cc(F)c5cnn(C6COC6)c5c4)n3)CC2)CC1 [Compound 1069] | < 4.35 | 9.06 | – |
| CC(C)C(=O)N1CCC(c2nc(-c3ccc(N4CCOCC4)cc3)no2)CC1 [Compound 1165] | < 4.35 | < 4.35 | – |
| CC(C)(C)OC(=O)N1CCC(c2nc(-c3ccc4c(C#N)ncn4c3)no2)CC1 [Compound 899] | < 4.35 | 4.59 | – |
| CC(=O)N1CC(n2cc3ccc(-c4noc(C5CCN(C(=O)OC(C)(C)C)CC5)n4)cc3n2)C1 [Compound 711] | – | – | pIC50 [1, 3]: < 4.35; pIC50 [2, 4]: < 4.35 |
| COC1(C(=O)N2CCC(C)(c3nc(-c4ccc5cnn(C(C)C)c5c4)no3)CC2)CC1 [Compound 748] | < 4.35 | 5.67 | – |
| CC(C)(C)CC(=O)N1CCC(c2nc(-c3ccc4cn[nH]c4c3)no2)CC1 [Compound 732] | – | – | pIC50 [1, 3]: < 4.35; pIC50 [2, 4]: 4.50 |
| CCC(=O)N1CCC(c2cc(-c3cc4c(cn3)cnn4C3COC3)no2)CC1 [Compound 1147] | < 4.35 | 5.26 | – |
| COC(=O)N1CCC(c2noc(-c3ccnc(OC4COC4)c3)n2)CC1 [Compound 1064] | < 4.35 | 5.46 | – |
| CC(C)c1noc2ccc(-c3noc(C4CCNCC4)n3)cc12 [Compound 723] | – | – | pIC50 [1, 3]: < 4.35; pIC50 [2, 4]: < 4.35 |
| Cc1nn(C)c2cc(-c3noc(C4CCN(C(=O)CN)CC4(F)F)n3)ccc12 (stereo not drawn) [Compound 512] | – | – | pIC50 [1, 5]: < 4.35; pIC50 [2, 6]: < 4.35 |
| CCC(=O)N1CCC(c2noc(-c3cc(F)c4cnn(C5COC5)c4c3)n2)CC1 [Compound 1072] | < 4.35 | 7.68 | – |
| C=C(F)/C=C/n1ncc2ccc(-c3noc(C4CCN(C(=O)OC(C)(C)C)CC4)n3)cc21 [Compound 738] | – | – | pIC50 [1, 3]: < 4.35; pIC50 [2, 4]: < 4.35 |
| CC1(CC(=O)N2CCN(c3noc(-c4ccc5cnn(C6COC6)c5c4)n3)CC2)CC1 [Compound 842] | < 4.35 | 8.00 | – |
| CC(C)(C)OC(=O)N1CCCN(c2noc(-c3ccc4cnn(C5COC5)c4c3)n2)CC1 [Compound 854] | 4.84 | 8.00 | – |
| CC1(C)CC1C(=O)N1CCC(c2noc(-c3ccc4cnn(C5COC5)c4c3)n2)CC1 (stereo not drawn) [Compound 848] | < 4.35 | 8.00 | – |
| CC(C)N1C(=O)Cc2ccc(-c3noc(C4CCN(C(=O)CC(C)(C)C)CC4)n3)cc21 [Compound 611] | – | – | pIC50 [1, 3]: < 4.35; pIC50 [2, 4]: 5.13 |
| O=C(N1CCC(c2noc(-c3ccc4cnn(C5COC5)c4c3)n2)CC1)C1(O)CC1 [Compound 903] | < 4.35 | 8.00 | – |

| SMILES | pIC50 ([1]; humanized yeast strain, 40 h) | pIC50 ([2]; humanized yeast strain, 40 h) | also measured |
| --- | --- | --- | --- |
| COC(=O)N1CCC(c2noc(-c3cccc(C4CCO4)c3)n2)CC1 (stereo not drawn) [Compound 1191] | < 4.35 | 5.87 | – |
| CC(C)C(=O)N1CCC(c2noc(-c3ccnc(-c4cnn(C)c4)c3)n2)CC1 [Compound 1187] | < 4.35 | < 4.35 | – |
| CC(C)n1ncc2ccc(-c3noc(C4(F)CCN(C(=O)OC5CC5)CC4)n3)cc21 [Compound 624] | – | – | pIC50 [1, 3]: < 4.35; pIC50 [2, 4]: 6.65 |
| CCC(=O)N1CCC(c2noc(-c3ccc4cnn(C5COC5)c4c3)n2)CC1 [Compound 891] | < 4.35 | 8.00 | – |
| CC(C)(C)OC(=O)N1CCC(c2nc(-c3ccc4cn(C5CC(=O)C5)nc4c3)no2)CC1 [Compound 786] | < 4.35 | < 4.35 | – |
| CC(C)(C)OC(=O)N1CC=C(c2ccc(-c3ccc4cnn(C5COC5)c4c3)nc2)CC1 [Compound 1010] | < 4.35 | 6.09 | – |
| CC(C)(C)OC(=O)N1CCC(c2noc(N3CCc4c(cnn4C4COC4)C3)n2)CC1 [Compound 1173] | ≤ 4.35 | 4.63 | – |
| O=C(C1CC1)N1CCC(c2noc(-c3ccnc(NC4COC4)c3)n2)CC1 [Compound 1115] | < 4.35 | 4.97 | – |
| CC1(CC(=O)N2CCN(c3nnc(-c4ccc5cnn(C6COC6)c5c4)o3)CC2)CC1 [Compound 995] | < 4.35 | < 4.35 | – |
| CC(C)n1ncc2ccc(-c3noc(N4C[C@@H]5CN(C(=O)OC(C)(C)C)C[C@H]5C4)n3)cc21 [Compound 667] | – | – | pIC50 [1, 3]: < 4.35; pIC50 [2, 4]: 6.06 |
| COC(=O)N1CCC(c2nc(-c3cccc(C4CCOC4)c3)no2)CC1 (stereo not drawn) [Compound 819] | < 4.35 | 5.43 | – |
| CC(C)n1ncc2ccc(-c3noc(C4CCN(C(=O)C(C)(C)C#N)CC4)n3)cc21 [Compound 717] | – | – | pIC50 [1, 3]: < 4.35; pIC50 [2, 4]: 5.77 |
| CC(C)(C)OC(=O)N1CCC(c2cc(-c3cnc4cnn(C5CCOC5)c4c3)on2)CC1 (stereo not drawn) [Compound 1233] | – | – | pIC50 ([1]; yeast strain expressing human SCD1 as sole desaturase, Table 8): 4.61; pIC50 ([2]; yeast strain expressing human SCD5 as sole desaturase, Table 8): 5.18 |
| Cc1nn(C)c2cc(-c3noc(C4CCN(c5nc6ccccc6o5)CC4)n3)ccc12 [Compound 669] | – | – | pIC50 [1, 3]: < 4.35; pIC50 [2, 4]: < 4.35 |
| CCC(=O)N1CCC(c2cc(-c3cc4c(cn3)cnn4C(C)C)no2)CC1 [Compound 1089] | < 4.35 | 5.33 | – |
| CCC(=O)N1CCC(c2noc(-c3ccc4c(C)nn(C)c4c3)n2)CC1 [Compound 939] | < 4.35 | 4.96 | – |
| O=C(N1CCC(c2noc(-c3ccc4cnn(C5COC5)c4c3)n2)CC1)C1(F)CC1 [Compound 952] | 4.81 | 5.04 | – |
| CC1(OC(=O)N2CCC(c3noc(-c4ccnc(Cl)c4)n3)CC2)CC1 [Compound 1130] | < 4.35 | 5.00 | – |
| CC(C)n1ncc2ccc(-c3noc(N4CCC(CO)CC4)n3)cc21 [Compound 637] | – | – | pIC50 [1, 3]: < 4.35; pIC50 [2, 4]: < 4.35 |

| SMILES | pIC50 ([1]; humanized yeast strain, 40 h) | pIC50 ([2]; humanized yeast strain, 40 h) | also measured |
| --- | --- | --- | --- |
| CC(C)n1ncc2ccc(-c3noc(C4(F)CCN(C(=O)OC5(C)CC5)CC4)n3)cc21 [Compound 625] | – | – | pIC50 [1, 3]: < 4.35; pIC50 [2, 4]: 6.91 |
| O=C(C1CCC1)N1CCN(c2noc(-c3ccc4cnn(C5COC5)c4c3)n2)CC(F)(F)C1 [Compound 1046] | ≤ 4.35 | 8.00 | – |
| COC(=O)N1CCN(c2noc(-c3ccc4cnn(C(C)C)c4c3)n2)CC1 [Compound 630] | – | – | pIC50 [1, 3]: 4.99; pIC50 [2, 4]: 7.85 |
| C[C@@H]1C[C@@H](c2noc(-c3ccc4cnn(C5COC5)c4c3)n2)CCN1C(=O)OC(C)(C)C [Compound 1019] | 4.91 | 8.00 | – |
| Cc1nn(C)c2cc(-c3noc([C@H]4CC[C@H](O)CC4)n3)ccc12 [Compound 526] | – | – | pIC50 [1, 5]: < 4.35; pIC50 [2, 6]: < 4.35 |
| CC(C)n1ncc2ccc(-c3noc(C4CCN(C(=O)N5CCCC5C#N)CC4)n3)cc21 (stereo not drawn) [Compound 666] | – | – | pIC50 [1, 3]: < 4.35; pIC50 [2, 4]: < 4.35 |
| CC(C)C(=O)N1CCC(c2noc(-c3ccccc3N3CCOCC3)n2)CC1 [Compound 1167] | < 4.35 | < 4.35 | – |
| CC1(OC(=O)N2CCC(c3nc(-c4ccc5cnn(C6CCOC6)c5c4)no3)CC2)CC1 (stereo not drawn) [Compound 777] | 5.38 | 8.00 | – |
| CC(C)n1ncc2ccc(-c3noc(C4CCN(C(=O)C5CCCN5C)CC4)n3)cc21 (stereo not drawn) [Compound 706] | – | – | pIC50 [1, 3]: < 4.35; pIC50 [2, 4]: < 4.35 |
| COC(=O)N1CCC(c2cc(-c3cc4c(cn3)cnn4C(C)C)no2)CC1 [Compound 1088] | < 4.35 | 5.60 | – |
| CCC(=O)N1CCCN(c2noc(-c3ccc4cnn(C5COC5)c4c3)n2)CC1 [Compound 962] | < 4.35 | 8.00 | – |
| COC(=O)N1CCC(c2noc(-c3ccc4cnn(C5CS(=O)(=O)C5)c4c3)n2)CC1 [Compound 1000] | < 4.35 | 6.19 | – |
| CC(C)(C)OC(=O)N1CCN(c2nc(-c3ccc4cnn(C5CNC5)c4c3)no2)CC1 [Compound 910] | < 4.35 | 8.00 | – |
| C[C@H]1CN(c2noc(-c3ccc4cnn(C5COC5)c4c3)n2)CCN1C(=O)OC(C)(C)C [Compound 956] | < 4.35 | 5.61 | – |
| COC(=O)N1CCC(c2nc(-c3ccc4cnn(C5CNC5)c4c3)no2)CC1 [Compound 950] | < 4.35 | < 4.35 | – |
| CC(C)n1ncc2ccc(-c3noc(C4CCN(C(=O)OC(C)(C)C)C=C4F)n3)cc21 (stereo not drawn) [Compound 509] | – | – | pIC50 [1, 5]: < 4.35; pIC50 [2, 6]: < 4.35 |
| COCC(COC)n1ncc2ccc(-c3nc(C4CCN(C(=O)OC)CC4)no3)cc21 [Compound 840] | < 4.35 | 4.68 | – |
| CC(C)(C)OC(=O)N1CCC(F)(c2noc(-c3ccc4cnn(C5COC5)c4c3)n2)CC1 [Compound 883] | < 4.35 | 6.00 | – |
| CC(C)(C)OC(=O)N1CCC(c2nc(-c3ccc4cn(C5CCCOC5)nc4c3)no2)CC1 (stereo not drawn) [Compound 719] | – | – | pIC50 [1, 3]: < 4.35; pIC50 [2, 4]: < 4.35 |
